Data published in patent US20110207691A1, “COBALAMIN COMPOSITIONS FOR THE TREATMENT OF CANCER” (BEBAAS, INC., priority 2006, published 2011).
Values joined by “and” are separate entries in the source; they are usually repeats but may differ in a detail not shown here. Equal entries are not always repeated.

Tests used:
[1] = system: BD-MB231 breast cancer cells; assay: Cell survival count after treatment, BD-MB231 breast cancer cells; format: cell-based; settings: cultures grown for 48 hours, then counted
Protocol: Cell cultures were grown and maintained using standard protocols for the respective cell line. Suitable culturing methods are described in, for example, Cancer Cell Culture: Method and Protocols (Methods in Molecular Medicine) Langdon (Ed) Humana Press, 2003 and General Techniques of Cell Culture (Handbooks in Practical Animal Cell Biology) Harrison and Rae, Cambridge University Press, 2005. Cultures were grown for 48 hours and subsequently counted to determine the number surviving after treatment with hydroxycobalamin, methylcobalamin or adenosylcobalamin and the aforementioned cobalamin analogs in combination with a nitric oxide-cobalamin complex. Determination of cell survival can be accomplished using, for example, a hemocytometer and Trypan Blue staining. […] Total number of cells can be determined living and dead cells can be determined and treatments compared.

WM9 melanoma cells = settings: cited from earlier work

Compound | number of surviving cells (mean) [1] | effect on WM9 melanoma cells (WM9 melanoma cells)
C/C1=C2/[N-][C@H]([C@H](CC(N)=O)[C@@]2(C)CCC(=O)NC[C@@H](C)OP(=O)([O-])O[C@H]2[C@@H](O)[C@@H](n3cnc4cc(C)c(C)cc43)O[C@@H]2CO)[C@]2(C)N=C(/C(C)=C3N=C(/C=C4N=C1[C@@H](CCC(N)=O)C\4(C)C)[C@@H](CCC(N)=O)[C@]\3(C)CC(N)=O)[C@@H](CCC(N)=O)[C@]2(C)CC(N)=O.[Co+3].[OH-] [hydroxycobalamin] | 472 and 729 and 728 | 
nitrosylcobalamin |  | anti-proliferative effect
